pIC50: −log10 of the molar value.
Key:
MYL cells = assay: PI-AnnexinV apoptosis staining, MYL cells; format: cell-based, human; settings: 1.5 μM or 3 μM, 48 hours, dependent on concentration
Protocol: In addition, 1.5 μM or 3 μM of Chb-M′ was administered to MYL cells. After 48 hours, the percentage of apoptosis was analyzed by PI-AnnexinV apoptosis staining. As a result, early apoptosis rates were increased dependent on the concentration of Chb-M′ (FIG. 26-4).

BCR-ABL gene = assay: qRT-PCR of BCR-ABL gene in CML and PhALL cells; format: cell-based, human; settings: 3 μM or 1 μM, 6 hours
Protocol: (§1) A total RNA was isolated with RNeasy mini kit (Qiagen) and reverse transcribed with Reverse script kit (TOYOBO) to generate cDNA. Real-time quantitative polymerase chain reaction (PCR) was carried out with 7500 Real-Time PCR System (Applied Biosystems) according to the manufacturer's instructions. Results were normalized to GAPDH levels. Relative expression levels were calculated using the 2-ΔΔCt method.
To BV173 cells, MYL cells, SU-Ph2 cells, and SU/SR cells, 3 μM or 1 μM of Chb-M′ was administered. After 6 hours, a total RNA was extracted from the cells, and then subjected to qRT-PCR (see the above-described “Real-time quantitative PCR (qRT-PCR)”) to quantify the expression levels of BCR-ABL gene. As a control, DMSO was administered. In the figures, the expression levels are shown as values relative to the mRNA level of p210BCR-ABL or the mRNA level of p190BCR-ABL in the DMSO (control)-administered group.

CD62E (E-selectin) = assay: FACS of cell surface CD62E (E-selectin) in HUVEC; format: cell-based, human; settings: 1 μM, 24 hours
Protocol: Using HUVEC, changes in expression levels of E-selectin by the RUNX inhibitor and RUNX knockdown were analyzed by FACS (fluorescence-activated cell sorter). To HUVEC, 1 μM of Chb-M′ was administered. After 24 hours, different antibodies were used for immunostaining and changes in the cell surface expression of CD62E (E-selectin) were measured. As a control, DMSO was administered. In addition, HUVEC in which RUNX1 gene expression was knockdown by sh_RUNX1 #2 were immunostained using different antibodies to measure changes in the cell surface expression of CD62E (E-selectin). As a control, the cells were knockdown by a siRNA targeting luciferase (sh_Luc.). As the antibodies, an anti-human CD62E (E-selectin) antibody (manufactured by eBioscience) and an isotype antibody (mouse IgG1) of anti-human CD62E (E-selectin) antibody (manufactured by eBioscience) were used.

[1] = system: Her2, p-Her2, SOS1, p-ERK, ERK, p-AKT, AKT; assay: Western blotting of Her2 signalling in MKN45 gastric cancer cells; format: cell-based, human; settings: 48 hours
[2] = system: E-selectin, P-selectin, Tie2, ICAM-1, VCAM-1, Jagged-1; assay: qRT-PCR of adhesion molecule genes in HUVEC; format: cell-based, human; settings: 0.5 μM, 1 μM, or 5 μM, 6 hours
GATA2, E2F5, and AR = assay: qRT-PCR of prostatic adenocarcinoma-related factors in PC-3; format: cell-based, human; settings: PC-3, 5 μM, 6 hours
Protocol: as §1
To prostatic adenocarcinoma cell line PC-3, 5 μM Chb-M′ was administered. After 6 hours, the mRNA levels of GATA2, E2F5, and AR (androgen receptors), which are important genes for proliferation of prostate cancer cells, were evaluated by qRT-PCR (see the above-described “Real-time quantitative PCR (qRT-PCR)”). As a control, DMSO was administered. In the figure, the mRNA expression levels of GATA2, E2F5, and AR are shown as values relative to those in the DMSO-treated group. As evident from FIG. 45, the expressions of GATA2, E2F5, and AR were suppressed by Chb-M′ at transcriptional levels.

A549 = assay: Cell viability, lung adenocarcinoma A549; format: cell-based, human; settings: A549 (EGFR wild-type p53 wild-type), 48 hours
[3] = system: medulloblastoma cell line DAOY; settings: DAOY (SHH, TP53-mutated), 48 hours
LU99A = assay: Cell viability, lung adenocarcinoma LU99A; format: cell-based, human; settings: LU99A (EGFR wild-type p53 wild-type), 48 hours
[4] = system: BCL11A, TRIM24, p21, BAX, PUMA, MDM2, PARP, cleaved caspase-3; assay: Immunoblotting of p53 pathway and apoptosis proteins in MV4-11 cells; format: cell-based, human; settings: 1 μM, 24 hours
Protocol: Cells were washed twice with ice cold phosphate-buffered saline (PBS) and harvested in protein lysis buffer [50 mM Tris (pH 7.4), 100 mM NaCl, 0.1 mM EDTA, 1 mM phenylmethylsulfonyl fluoride, 1 mM β-glycerophosphate, 2.5 mM sodium pyrophosphate, 1 mM Na3VO4, lx protease inhibitor (Roche) and PhosSTOP (Roche)]. Whole cell extracts were separated by SDS-polyacrylamide gel electrophoresis (SDS-PAGE) and electrotransferred onto polyvinylidene difluoride membranes. Membranes were probed with the following antibodies: anti-Ctip1 antibody (Abcam, ab19487), anti-TRIM24 antibody (Bethyl Laboratories, Inc), anti-RUNX1 antibody (A-2), anti-GAPDH (FL-335), anti-p21 (C-19), anti-Bax (N-20) antibodies (Santa Cruz Biotechnology, Inc.), anti-RUNX2, anti-RUNX3, anti-p53 antibodies (Cell Signaling Technology), anti-CBFβ antibody (FL-182, Santa Cruz Biotechnology, Inc.), anti-cleaved caspase-3 antibody (5A1E, Cell Signaling Technology), anti-PARP antibody (46D11, Cell Signaling Technology). For secondary antibodies, anti-rabbit IgG, or anti-mosue IgG HRP-linked antibodies (Cell Signaling Technology) were used. Blots were detected using Chemi-Lumi One Super (nacalai tesque, Inc.) and ChemiDoc™ XRS+ Imager (Bio-Rad Laboratories, Inc.), as recommended by the manufacturers. Protein levels were quantified with Image Lab Software (Bio-Rad Laboratories, Inc.).
Briefly, MV4-11 cells were treated with 1 μM Chb-M′ or Chb-50 for 24 hours. The treated cells were dissolved in the protein lysis buffer. Whole cell extracts were resolved by SDS-polyacrylamide gel electrophoresis (SDS-PAGE) and transferred onto polyvinylidene difluoride membranes. The membranes were probed with each antibody. Blots were detected and quantified. As a control, the cells treated with DMSO were used.

ABC-1 = assay: Cell viability, lung adenocarcinoma ABC-1; format: cell-based, human; settings: ABC-1 (EGFR wild-type p53-mutated), 48 hours

Compound: CN(C)CCCNC(=O)c1cc(NC(=O)c2cc(NC(=O)c3cc(NC(=O)c4cc(NC(=O)CCCNC(=O)c5nc(NC(=O)c6nc(NC(=O)c7cc(NC(=O)c8nc(NC(=O)CCNC(=O)CCCc9ccc(N(CCCl)CCCl)cc9)cn8C)cn7C)cn6C)cn5C)cn4C)cn3C)cn2C)cn1C [Chb-M′]
- Early apoptosis rates (MYL cells): increased
- mRNA level of p210BCR-ABL (BCR-ABL gene; BV173 cells): decreased
- mRNA level of p210BCR-ABL (BCR-ABL gene; MYL cells): decreased
- mRNA level of p190BCR-ABL (BCR-ABL gene; SU-Ph2 cells): decreased
- mRNA level of p190BCR-ABL (BCR-ABL gene; SU/SR cells): decreased
- Cell surface expression of E-selectin (FACS) (CD62E (E-selectin)): decrease
- Expression of SOS1 (protein) ([1]; MKN45, 0.1 μM, 1 μM, or 10 μM): suppressed
- Phosphorylation of Her2 ([1]; MKN45, 0.1 μM, 1 μM, or 10 μM): suppressed
- Expression of Her2 protein ([1]; MKN45, 1 μM): suppressed
- Phosphorylated forms of ERK protein and AKT protein ([1]; MKN45, 1 μM): suppressed
- Total amounts of ERK protein and AKT protein ([1]; MKN45, 1 μM): not changed
- E-selectin, P-selectin, and VCAM-1 mRNA levels [2]: markedly suppressed
- Expressions of GATA2, E2F5, and AR (mRNA) (GATA2, E2F5, and AR): suppressed
- IC50 compared with the EGFR inhibitor (gefitinib) (A549): lower IC50 values
- pIC50 [3]: 6.09
- IC50 compared with the EGFR inhibitor (gefitinib) (LU99A): lower IC50 values
- Cleaved form of PARP and cleaved caspase-3 (apoptosis) [4]: emergence
- Protein expression levels of p53 and downstream proteins (p21, BAX) [4]: increased
- Protein expression levels of suppressors of p53 (BCL11A and TRIM24) [4]: reduced
- IC50 compared with the EGFR inhibitor (gefitinib) (ABC-1): lower IC50 values

From patent US11235001B2, “RUNX inhibitor” (KYOTO UNIVERSITY, priority 2016, dated 2022)
